# Results reported in patent US5869336A, “Recombinant enzymatically active calpain expressed in a baculovirus system” (Cephalon, Inc., priority 1997, dated 1999).
# Where a SMILES comes first, the peptide text is derived from it. [ ]: non-standard residue; d: D form. Nle = CCCC[C@H](N)C(=O)O
# Assays:
# [1] = tested on: vulnerable hippocampal neurons; conditions: in vivo; cited from earlier work
# [2] = tested on: EAA-induced protein breakdown; conditions: in vivo; cited from earlier work
# [3] = tested on: neurons; conditions: rats, clamping both carotid arteries and lowering arterial blood pressure; cited from earlier work
# [4] = tested on: calpain; conditions: in vivo; cited from earlier work
# [5] = tested on: cells; conditions: cited from earlier work
# [6] = tested on: rat Na,K-ATPase; conditions: enzyme from insect cells; cited from earlier work
# [7] = tested on: recombinant 80 kDa subunit of calpain I; assay: Enzymatic activity of independently expressed 80 kDa subunit (Succ-Leu-Tyr-AMC); format: biochemical, human; conditions: 12.5 μM calpain inhibitor I; 33 μg unfractionated extract; FIG. 8
# Procedure: Sf21 cells were again seeded in 24 well plates at 1.5×10^5 cells/cm^2 and infected with either wild-type virus, coinfected with both AcNPV-hCANP30-5 and AcNPV-hCANPI80-5 (MOI of 5 for each virus), or infected with AcNPV-hCANPI-2-5 (MOI=5.7). The intracellular proteins were harvested at 40 hours after infection with 100 μl/well of the following lysis buffer: 50 mM Tris-HCl, pH 7.5, 50 mM NaCl, 1 mM EDTA, 1 mM EGTA, 5 mM β-mercaptoethanol, 0.1% Triton-100, followed by a 10 minutes centrifugation at 14,000×g at 4° C. to pellet the nuclei and some membranes. The in vitro enzyme activity of 20 μl of each extract (12.5-20 μg of total protein) was measured using the synthetic peptide substrate succinyl-leucine-tyrosine-aminomethyl coumarin (Succ-Leu-Tyr-AMC) at a 1 mM concentration with and without the addition of 5 mM CaCl2 following the procedure of Sasaki et al., J. Biol. Chem., 259:12489-12494 (1984), incorporated herein by reference. […]
# To determine the relative activity of the recombinantly produced 80 kDasubunit, the enzymatic activity of the subunit was examined in unfractionated extracts from Sf21 cells infected with AcNPV-hCANPI80-5. […] The same amount of enzyme activity for both the recombinant 80 kDa subunit and the recombinant calpain was then run on SDS-PAGE and the amount of each was qualitatively determined by immunoblot analysis as described in Example 4 above. […]
# [8] = tested on: native human calpain I; assay: Calcium-dependent protease activity (Succ-Leu-Tyr-AMC), native calpain I; format: biochemical; conditions: 12.5 μM calpain inhibitor I; native human calpain I; FIG. 5a
# Procedure: (§1) Sf21 cells were again seeded in 24 well plates at 1.5×10^5 cells/cm^2 and infected with either wild-type virus, coinfected with both AcNPV-hCANP30-5 and AcNPV-hCANPI80-5 (MOI of 5 for each virus), or infected with AcNPV-hCANPI-2-5 (MOI=5.7). The intracellular proteins were harvested at 40 hours after infection with 100 μl/well of the following lysis buffer: 50 mM Tris-HCl, pH 7.5, 50 mM NaCl, 1 mM EDTA, 1 mM EGTA, 5 mM β-mercaptoethanol, 0.1% Triton-100, followed by a 10 minutes centrifugation at 14,000×g at 4° C. to pellet the nuclei and some membranes. The in vitro enzyme activity of 20 μl of each extract (12.5-20 μg of total protein) was measured using the synthetic peptide substrate succinyl-leucine-tyrosine-aminomethyl coumarin (Succ-Leu-Tyr-AMC) at a 1 mM concentration with and without the addition of 5 mM CaCl2 following the procedure of Sasaki et al., J. Biol. Chem., 259:12489-12494 (1984), incorporated herein by reference. The activity obtained was compared with the enzyme activity of 2 μg of partially-purified native human calpain I produced according to the method of Siman et al., supra.
# (§2) The activity in the presence of calcium was also measured with the addition of 12.5 μM calpain inhibitor I following the procedure disclosed in Sasaki et al., supra. The results are depicted in FIGS. 5a-d. In FIGS. 5a-d, open circles represent activity without calcium present. […]
# [9] = target: T1, recombinant human calpain I (Homo sapiens, UniProt P07384); assay: Calcium-dependent protease activity (Succ-Leu-Tyr-AMC), recombinant calpain in Sf21 cell extracts; format: biochemical; conditions: 12.5 μM calpain inhibitor I; recombinant, coinfected or AcNPV-hCANPI-2-5; FIGS. 5c, 5d
# T1 construct: the 2153 bp fragment containing the entire human 80 kDa calpain I cDNA; made in house; host or cells: Spodoptera frugiperda Sf21 cells, recombinant baculovirus (AcNPV-hCANPI-2-5, or coinfection with AcNPV-hCANP30-5 and AcNPV-hCANPI80-5)
# T1 sequence (P07384 2-714): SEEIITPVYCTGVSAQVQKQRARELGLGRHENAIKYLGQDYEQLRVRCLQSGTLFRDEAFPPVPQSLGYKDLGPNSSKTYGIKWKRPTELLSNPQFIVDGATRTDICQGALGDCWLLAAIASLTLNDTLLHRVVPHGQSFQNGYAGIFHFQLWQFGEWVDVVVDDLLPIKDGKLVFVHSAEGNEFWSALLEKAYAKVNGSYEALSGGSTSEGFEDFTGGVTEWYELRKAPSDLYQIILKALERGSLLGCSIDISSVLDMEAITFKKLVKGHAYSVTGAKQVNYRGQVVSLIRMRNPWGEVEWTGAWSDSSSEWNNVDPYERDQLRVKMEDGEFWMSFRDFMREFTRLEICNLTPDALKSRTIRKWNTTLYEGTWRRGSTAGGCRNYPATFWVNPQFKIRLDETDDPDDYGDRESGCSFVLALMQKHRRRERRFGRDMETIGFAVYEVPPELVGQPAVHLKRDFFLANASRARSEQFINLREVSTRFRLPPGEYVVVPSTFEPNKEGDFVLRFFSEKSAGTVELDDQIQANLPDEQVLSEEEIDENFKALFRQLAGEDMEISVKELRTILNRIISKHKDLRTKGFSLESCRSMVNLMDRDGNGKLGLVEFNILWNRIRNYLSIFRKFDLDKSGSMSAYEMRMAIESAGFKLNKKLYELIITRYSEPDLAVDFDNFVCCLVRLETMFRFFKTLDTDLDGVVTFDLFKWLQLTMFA
# T1 sequence (P04632 1-268 partner): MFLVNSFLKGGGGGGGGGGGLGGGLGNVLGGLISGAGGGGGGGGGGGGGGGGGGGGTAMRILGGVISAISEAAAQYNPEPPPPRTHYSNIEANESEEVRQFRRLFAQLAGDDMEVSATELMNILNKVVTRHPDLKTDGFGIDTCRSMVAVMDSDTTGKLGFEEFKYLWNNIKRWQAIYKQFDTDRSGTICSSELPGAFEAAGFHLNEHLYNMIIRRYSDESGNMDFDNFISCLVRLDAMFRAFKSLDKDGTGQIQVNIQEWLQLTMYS
# Procedure: as §1, §2
# [10] = target: T1, recombinant human calpain I; assay: Calcium activation of recombinant calpain (Succ-Leu-Tyr-MNA hydrolysis); format: biochemical; conditions: pH 7.3, 1 mM Succ-Leu-Tyr-MNA, approximation based on Kd of EGTA, read-out: concentration of calcium required to give 1/2 Vmax
# Procedure: (§3) To determine the calcium concentration required for enzyme activity, tests were performed essentially as described by Kitahara et al., J. Biochem., 95:1759-1766 (1984). First, enzyme preparations were dialyzed overnight against 110 mM imidazole-HCl/1 mM EGTA buffer at pH 7.3 containing 5 mM β-mercaptoethanol. Ten-fold concentrated Ca^2+ /EGTA buffers were prepared by adding varying amounts of CaCl2 to the imidazole/EGTA buffer. Twenty μl of each buffer was put into three wells of a 96 well plate. Dilutions of dialyzed enzyme were made into the imidazole/EGTA buffer containing 1 mM Succ-Leu-Tyr-MNA and 180 μl of each preparation were added to the wells containing the various Ca/EGTA buffers. Substrate hydrolysis was measured every 5 minutes for 30 minutes. The 1/2 Vmax was determined as the rate of substrate hydrolysis which was 50% of the maximal rate achieved in the presence of the varying amounts of calcium. […] The [Ca^2+ ] activation profiles for both the native and recombinant enzymes are virtually identical. In FIG. 9, open squares with interior open circles represent recombinant human calpain I (rhCANPI). Shaded squares with interior open circles represent native human calpain I (nhCANPI).
# [11] = tested on: native human calpain I; assay: Calcium activation of native calpain (Succ-Leu-Tyr-MNA hydrolysis); format: biochemical; conditions: pH 7.3, 1 mM Succ-Leu-Tyr-MNA, approximation based on Kd of EGTA, read-out: concentration of calcium required to give 1/2 Vmax
# Procedure: as §3
# [12] = imidazole-HCl/EGTA buffer, pH 7.3; used for approximating [Ca2+]; read-out: Kd of EGTA for calcium; cited from earlier work
molecule,measurement,setting,value
CC(=O)N[C@@H](CC(C)C)C(=O)N[C@@H](CC(C)C)C(=O)N[C@H](C=O)CCCNC(=N)N [leupeptin],protection against degeneration of hippocampal neurons after ischemia,[1],protected against the degeneration of vulnerable hippocampal neurons after ischemia
same,lowering EAA-induced protein breakdown,[2],unsuccessful
same,protection of neurons against ischemic and hypoxic damage,[3],protected neurons against ischemic and hypoxic damage
same,block of trauma-evoked calpain response,[4],block a trauma-evoked calpain response in vivo
same,uptake by cells,[5],failed to enter the cells
"Na,K-ATPase: functional rat Na,K-ATPase expressed using the baculovirus expression system",activity relative to enzyme from dog kidney outer medulla,[6],20-25%
CCCC[C@@H](C=O)NC(=O)[C@H](CC(C)C)NC(=O)[C@H](CC(C)C)NC(C)=O [calpain inhibitor I] (Ac-Leu-Leu-[Nle]-aldehyde),protection of neurons against ischemic and hypoxic damage,[3],protected neurons against ischemic and hypoxic damage
same,inhibition of activity,[7],completely inhibited
same,inhibition of calcium-dependent substrate hydrolysis,[8],inhibited
same,inhibition of calcium-dependent substrate hydrolysis,[9],also inhibited
calcium,EC50,[10],14 µM
same,EC50,[11],15 µM
O=C(O)CN(CCOCCOCCN(CC(=O)O)CC(=O)O)CC(=O)O [EGTA],Kd,[12],5.5 µM
